Results taken from patent US20210317111A1, “NOVEL MEDICAMENT FOR TREATING INFLAMMATORY BOWEL DISEASE” (OTSUKA PHARMACEUTICAL CO., LTD., priority 2018, published 2021).
Converted amounts (≈) assume the structure as drawn.

How the values were obtained:
[1] = system: activated T cell (CD25+ cell); assay: T-cell activation (CD25+ cells) in anti-CD3/CD28/CD2 bead-stimulated PBMC; type: cell-based, human; settings: both CD4-positive and CD8-positive T-cell
Description: (§1) Peripheral blood (30 mL) derived from a healthy adult was layered on a lymphocyte tube Leucosep™ containing Lymphoprep (15 mL), and the tube was centrifuged at room temperature at 2000 rpm for 20 minutes. After the centrifugation, the upper 5 mL of the plasma was removed from the peripheral blood mononuclear cell (PBMC) layer with an aspirator, and the left solution containing the PBMC layer was collected into a new 50 mL tube. To the collected solution was added an equal amount of Hanks' balanced salt solution (HBSS) to dilute the cell suspension. The diluted solution was centrifuged at 4° C. at 1800 rpm for 5 minutes. After the centrifugation, the supernatant was discarded, the rest was suspended in 10 mL of AIM-V. The suspension was centrifuged at 4° C. at 1500 rpm for 5 minutes, and the supernatant was discarded. The same washing process was repeated one more time. After the centrifugation, the supernatant was discarded, and the obtained cell was suspended in 5% FBS-containing AIM-V to be used in the following tests.
To 96-well round-bottom plate were added 100 μL of medium containing the compound, 100 μL (0.5×10^5 beads) of anti-CD3/CD28/CD2-loaded bead suspension (Miltenyi), and 100 μL (1×10^5 cells) of PBMC suspension. The mixture was incubated at 37° C. in 5% CO2 for 3 days.

[2] = system: Mycobacterium avium subspecies paratuberculosis (MAP); assay: antibacterial activity (MIC), broth microdilution method; type: cell-based; settings: 336 h
Description: The chronic enterocolitis of ruminants which is caused by Mycobacterium avium subspecies paratuberculosis (MAP) is similar to Crohn's disease. […] Thus, the antibacterial activity of the present compound against MAP was evaluated. The used comparative drugs for the present compound were rifaximin (RFX), ciprofloxacin (CPFX), metronidazole (MTZ), clarithromycin (CAM), rifabutin (RBT), and clofazimine (CFZ).
The antibacterial activity (minimum inhibitory concentration (MIC)) was assayed by broth microdilution method which is based on Clinical and laboratory standards institute (CLSI).
The 5 strains of MAP were inoculated onto Middlebrook 7H9 agar containing 10% dubos oleic albumin complex (OADC), Tween 80 (0.5 g/L), mycobactin J (2 mg/L), and 1.5% agar, and pre-cultured at 37° C. under an aerobic condition for 14 days. After the pre-culture, the bacterial cell was scraped out from the agar, and prepared to the turbidity of 0.5 Mcfarland standard using Middlebrook 7H9 broth containing 10% dubos oleic albumin complex (OADC), Tween 80 (0.5 g/L), and mycobactin J (2 mg/L)]. The 10-fold diluted solution of the bacterial suspension was inoculated onto Middlebrook 7H9 broth 96-well plate which contains the present compound or any one of the comparative drugs, and incubated at 37° C. under an aerobic condition for 14 days.
After the incubation, the bacterial growth in each well of the 96-well plate was visually checked. The minimum concentration at which the bacterial growth was not observed, compared with the result of the well containing neither present compound nor comparative drug was determined as MIC of the present compound or each comparative drug against each test bacterium.

Fusobacterium spp. = assay: antibacterial activity (MIC), agar plate dilution method; type: cell-based; settings: 17 strains of Fusobacterium spp.; anaerobic, 37° C.
Description: There are plural reports about the relationship between intestinal bacteria and inflammatory bowel disease, and it is thought that Fusobacterium spp., one of the intestinal bacteria is a pathogenic bacteria causing inflammatory bowel disease. […] The antibacterial activity (minimum inhibitory concentration (MIC)) was assayed by agar plate dilution method which is based on Clinical and laboratory standards institute (CLSI). The medium used herein was Brucella medium with sheep blood. […] The bacterial suspension was inoculated onto Brucella agar with sheep blood which contains the present compound or any one of the comparative drugs, and incubated at 37° C. under an anaerobic condition.

proliferated T cell = assay: T-cell proliferation (CFSE) in stimulated PBMC; type: cell-based, human; settings: both CD4-positive and CD8-positive T-cell; 2 days
Description: as §1, with “tests. […]” for “tests.”

TNF-α production = assay: inhibition of LPS-induced TNF-α production in human peripheral blood (ELISA); type: cell-based; settings: 24 hours
Description: The LPS solution which was adjusted to 2 μg/mL with RPMI 1640 medium was added to 48-well plate in the amount of 250 μL/well. The each diluted solution of each test compound and the diluted solution of the solvent control were added to 3 wells for each concentration in the amount of 50 μL/well, 4-fold diluted solution of human peripheral blood was added to each well (200 μL/well), and the wells were incubated at 37° C. in 5% CO2 for 24 hours. As LPS (−) control, RPMI 1640 medium without added LPS was prepared in the same manner. The final concentrations of each test sample were adjusted to 0, 1, 3, 10, 30, and 100 μM, and the final concentration of prednisolone was adjusted to 0.3 μM. 24 hours later from the incubation, each supernatant was collected and stored at −80° C. until the measurement of the TNF-α concentration.
The TNF-α concentration was measured by ELISA with Human TNF-alpha Quantikine ELISA Kit (R & D Systems). Each sample was unfrozen at room temperature, and diluted with Calibrator Diluent RD6-35 (1×) of the kit by 10-fold. The 10-fold diluted supernatant and the TNF-α standard solution were added on TNF-α microplate, and reacted according to the operating manual of the kit. After the coloring, the absorbance at wave length of 450 nm was measured with a microplate reader (Multiskan FC; Thermo Fisher […]), and the calibration curve was prepared with an analysis software (Skanit Software 3.1.0.4 RE for Multiskan FC (ja)) to read the TNF-α concentration of each sample. Calibration curve used a 4-parameter logistic curve.
The inhibition rates were presented as the mean±standard deviation using Microsoft Excel 2010. For each blood donor, the TNF-α production rate under each compound concentration was calculated with the TNF-α concentration in the supernatant of the solvent group as 100%.
The results are averages of the measurements obtained from the human peripheral blood of three volunteers.

Cc1c(-c2cnc(N)c(C#N)c2)c(F)cc2c(=O)c(C(=O)O)cn(C3CC3)c12 [the present compound, 7-(6-amino-5-cyanopyridin-3-yl)-1-cyclopropyl-6-fluoro-1,4-dihydro-8-methyl-4-oxo-3-quinoline-carboxylic acid]
inhibitory activity on T cell activation compared with prednisolone ([1]; 30 μM): higher inhibitory activity than prednisolone
rate of activated T cell ([1]; 6 people's human PBMC, 3 days): decreased
MIC [2]: 0.06 to 0.5 µg/mL (≈ 0.159 to 1.32 µM)
MIC (Fusobacterium spp.): 0.25 to 1 µg/mL (≈ 0.661 to 2.64 µM)
inhibition of T cell proliferation (MFI CFSE) (proliferated T cell): effect of cell growth inhibition
inhibitory effect on TNF-α production at 100 μM (TNF-α production; 100 μM, human peripheral blood): completely inhibited
inhibitory activity for TNF-α production over concentration range (TNF-α production; 1, 3, 10, 30, 100 μM, human peripheral blood): dose-dependent manner
IC50 (TNF-α production; human peripheral blood of three volunteers): 6.25 µM
